Results reported in patent publication US20140038920A1, “TFEB PHOSPHORYLATION INHIBITORS AND USES THEREOF” (FONDAZIONE TELETHON, priority 2011, published 2014).
pEC50: −log10 of the molar value. Like-named read-outs stand apart in the source and are kept apart here.

What was measured:
[1] = system: TFEB; experiment: High content TFEB-GFP nuclear translocation assay; format: cell-based; details: Homo sapiens, TFEB-GFP HeLa cells
[2] = system: TFEB S142; experiment: TFEB S142 phosphorylation with p-S142 phospho-antibody in HeLa cells (FIG. 20A); format: cell-based; details: starved cells supplemented with normal media with inhibitor
Description: FIG. 20 mTORC1 phosphorylates TFEB at serine 142 (S142). […] HeLa cells were treated as indicated and total and nuclear extracts were probed with a TFEB p-S142 phospho-antibody and with anti-FLAG antibody. (B) Schematic representation of TFEB protein structure with the predicted mTORC1 phosphorylation sites and their conservation among vertebrates. Numbering is according to human isoform 1. (C) Sequence conservation scores of the phosphorylation sites and quantitative agreement between mTOR consensus motif and the sequence around the phosphorylation sites of TFEB. (D) S142 and S211 regulate TFEB localization. Flag immunostaining of TFEB subcellular localization in HeLa cells expressing serine-to-alanine mutated versions of TFEB-3×Flag. Nuclei were stained with DAPI. Values are means of five fields containing at least 50 transfected cells. Student's t-test (unpaired) ***P<0.001. Scale bars represent […].
The mouse anti-TFEB monoclonal antibody was purchased from My Biosource catalogue No. MBS 120432. To generate anti-pS142 specific antibodies, rabbits were immunized with the following peptide coupled to KLH: AGNSAPN{pSer}[…]. Following the fourth immunization, rabbits were sacrificed and the serum was collected. Non-phosphospecific antibodies were depleted from the serum by circulation through a column containing the nonphosphorylated antigene. […]

[3] = 3 h, ten concentrations 2.54 nM to 50 μM (FIG. 19D), read-out: EC50, TFEB nuclear translocation
[4] = mobilization of cytosolic TFEB to the nucleus, 3 h at 37° C. in RPMI, ten concentrations 50 μM to 2.54 nM, 4 runs, read-out: Average EC50

SMILES | pEC50 [1, 3] | pEC50 [1, 4] | nutrient-induced S142 phosphorylation of TFEB [2]
CO[C@H]1C[C@@H]2CC[C@@H](C)[C@@](O)(O2)C(=O)C(=O)N2CCCC[C@H]2C(=O)O[C@H]([C@H](C)C[C@@H]2CC[C@@H](O)[C@H](OC)C2)CC(=O)[C@H](C)/C=C(\C)[C@@H](O)[C@@H](OC)C(=O)[C@H](C)C[C@H](C)/C=C/C=C/C=C/1C [RAPAMYCIN] | 3.98 | < 4.82 | did not
CCC(=O)N1CCN(c2ccc(-n3c(=O)ccc4cnc5ccc(-c6cnc7ccccc7c6)cc5c43)cc2C(F)(F)F)CC1 [TORIN 1] | 6.83 | > 5.15 | clearly blunted nutrient-induced S142 phosphorylation
